For test [1], the target named is T1, Aldo-keto reductase family 1 member B1 (Homo sapiens, UniProt P15121). In words: ChEBML_157077. The text has this: Inhibition of human placental aldose reductase (HPAR) activity with glyceraldehyde as substrate
The target of test [2] is T1, Aldo-keto reductase family 1 member B1. Description: Compound was evaluated for inhibition of human placental aldose reductase (HPAR) activity with glyceraldehyde as substrate.

One may read the IC50 as the concentration at which inhibition is half-maximal. Read a high IC50 as a need for much substance. In the case of `CS(=O)(=O)c1c(-c2[nH]c(=O)[nH]c2O)cc(Cl)cc1C(F)(F)F`, the IC50 in test [1] was 580 nM. Still for that read-out and setting: the result for `Cc1cc(Cl)cc(-c2[nH]c(=O)[nH]c2O)c1S(C)(=O)=O` reads 270 nM; that for `CCCS(=O)(=O)c1ccc(Cl)cc1-c1[nH]c(=O)[nH]c1O`, 250 nM; that for `CS(=O)(=O)c1c(Cl)cc(Cl)cc1-c1[nH]c(=O)[nH]c1O`, 610 nM. For the compound `CCCNS(=O)(=O)c1ccc(Cl)cc1-c1[nH]c(=O)[nH]c1O`, in test [1], it took 580 nM to reach half-maximal inhibition (IC50).

In test [1], `CCCCCCS(=O)(=O)c1ccc(Cl)cc1-c1[nH]c(=O)[nH]c1O` showed a half-inhibitory concentration (IC50) of 230 nM. Same read-out and setting: next, `CCCCCS(=O)(=O)c1ccc(Cl)cc1-c1[nH]c(=O)[nH]c1O`: 50 nM; `CS(=O)(=O)c1ccc(F)cc1-c1[nH]c(=O)[nH]c1O`: 610 nM. In test [1], `O=c1[nH]c(O)c(-c2cc(Cl)ccc2S(=O)(=O)Nc2ccc(F)cc2)[nH]1` came in with an IC50 of 230 nM. In the case of `C[S+]([O-])c1ccc(Cl)cc1-c1[nH]c(=O)[nH]c1O` (configuration not stated), in test [2], 250 nM corresponded to half-maximal inhibition (IC50). Consider `O=c1[nH]c(O)c(-c2cc(Cl)ccc2S(=O)(=O)Cc2ccc(Cl)cc2)[nH]1`, for which it took 270 nM to reach half-maximal inhibition in test [1] (IC50). As to `CS(=O)(=O)c1ccc(Cl)cc1-c1[nH]c(=O)[nH]c1O`, in test [2], the IC50 is 50 nM.

(Values after BindingDB's records for doi:10.1021/jm00126a011 (Pfizer, 1989).)
